According to patent US10947188B2, “Small molecule ferroptosis inducers” (THE TRUSTEES OF COLUMBIA UNIVERSITY IN THE CITY OF NEW YORK, priority 2016, dated 2021):

How the values were obtained:
HT-1080 = experiment: Modulatory profiling: Alamar Blue viability, lethal compound cotreated with death modulator (EC50, AUC); assay type: cell-based; set-up: AUC, modulator HT.3MA / AUC, modulator HT.ALLN / AUC HT.ATA / AUC HT.ActD / AUC HT.BHA / AUC HT.BHT / AUC HT.BocD / AUC HT.CHX / AUC HT.Co2+ / AUC HT.DPQ / AUC HT.EGTA / AUC HT.Lmim / AUC HT.NAD+ / AUC HT.Nec-1 / AUC HT.SP600125 / AUC HT.TLCK / AUC HT.U0126: unit not given beside the values; details: for AUC, modulator HT.3MA / AUC, modulator HT.ALLN: HT-1080 cells, modulatory profile value (AUC); for AUC, modulator HT.3MA: lethal compound cotreated with modulator 3MA; for AUC HT.ATA: HT-1080, modulator ATA; for AUC HT.ActD: HT-1080, modulator ActD; for AUC HT.BHA: HT-1080, modulator BHA; for AUC HT.BHT: HT-1080, modulator BHT; for AUC HT.BocD: HT-1080, modulator BocD; for AUC HT.CHX: HT-1080, modulator CHX; for AUC HT.Co2+: HT-1080, modulator Co2+; for AUC HT.CspA: HT-1080, modulator CspA; for AUC HT.DPQ: HT-1080, modulator DPQ; for AUC HT.EGTA: HT-1080, modulator EGTA; for AUC HT.Gd3+: HT-1080, modulator Gd3+; for AUC HT.LNAME: HT-1080, modulator LNAME; for AUC HT.Lmim: HT-1080, modulator Lmim; for AUC HT.NAD+: HT-1080, modulator NAD+; for AUC HT.NMMA: HT-1080, modulator NMMA; for AUC HT.Nec-1: HT-1080, modulator Nec-1; for AUC HT.Pepstatin: HT-1080, modulator Pepstatin; for AUC HT.SP600125: HT-1080, modulator SP600125; for AUC HT.TLCK: HT-1080, modulator TLCK; for AUC HT.U0126: HT-1080, modulator U0126; for HT.atoc (AUC) / HT.bCarotene (AUC) / HT.deferox (AUC) / HT.digoxin (AUC) / HT.trolox (AUC) / HT.zVAD (AUC): HT-1080; for HT.atoc (AUC): modulator atoc; for HT.bCarotene (AUC): modulator bCarotene; for HT.deferox (AUC): modulator deferox; for HT.digoxin (AUC): modulator digoxin; for HT.trolox (AUC): modulator trolox; for HT.zVAD (AUC): modulator zVAD; for AUC, modulator HT.ALLN: lethal compound cotreated with modulator ALLN; for AUC HT.BHA: reference of the scale not given here; for AUC HT.EGTA: reference of the scale not given here
BJeLR = experiment: as above; assay type: cell-based, human; set-up: AUC, modulator BJ.Gd3+ / AUC, modulator BJ.LNAME / AUC, modulator BJ.Lmin / AUC, modulator BJ.3MA / AUC, modulator BJ.ALLN / AUC, modulator BJ.Boc D / AUC, modulator BJ.CHX / AUC, modulator BJ.Co2+ / AUC, modulator BJ.Nec-1 / AUC, modulator BJ.Pepstatin / AUC, modulator BJ.TLCK / AUC, modulator BJ.atoc / AUC, modulator BJ.trolox / AUC, modulator BJ.zVAD: unit not given beside the values; details: BJeLR cells, modulatory profile value (AUC); for AUC, modulator BJ.3MA: lethal compound cotreated with modulator 3MA; for AUC, modulator BJ.ALLN: lethal compound cotreated with modulator ALLN; for AUC, modulator BJ.Boc D: lethal compound cotreated with modulator Boc D; for AUC, modulator BJ.CHX: lethal compound cotreated with modulator CHX; for AUC, modulator BJ.Co2+: lethal compound cotreated with modulator Co2+; for AUC, modulator BJ.DPQ: lethal compound cotreated with modulator DPQ; for AUC, modulator BJ.Gd3+: lethal compound cotreated with modulator Gd3+; for AUC, modulator BJ.LNAME: lethal compound cotreated with modulator LNAME; for AUC, modulator BJ.Lmin: lethal compound cotreated with modulator Lmin; for AUC, modulator BJ.NAD+: lethal compound cotreated with modulator NAD+; for AUC, modulator BJ.NMMA: lethal compound cotreated with modulator NMMA; for AUC, modulator BJ.Nec-1: lethal compound cotreated with modulator Nec-1; for AUC, modulator BJ.Pepstatin: lethal compound cotreated with modulator Pepstatin; for AUC, modulator BJ.TLCK: lethal compound cotreated with modulator TLCK; for AUC, modulator BJ.atoc: lethal compound cotreated with modulator atoc; for AUC, modulator BJ.trolox: lethal compound cotreated with modulator trolox; for AUC, modulator BJ.zVAD: lethal compound cotreated with modulator zVAD; for AUC, modulator BJ.Lmin/NAD+: lethal compound cotreated with modulator Lmin/NAD+
Throughout, for AUC, modulator BJ.3MA: reference of the scale not given here.
Throughout, for AUC, modulator BJ.ALLN: reference of the scale not given here.
Throughout, for AUC, modulator BJ.Boc D: reference of the scale not given here.
Throughout, for AUC, modulator BJ.CHX: reference of the scale not given here.
Throughout, for AUC, modulator BJ.Co2+: reference of the scale not given here.
Throughout, for AUC, modulator BJ.DPQ: reference of the scale not given here.
Throughout, for AUC, modulator BJ.Gd3+: reference of the scale not given here.
Throughout, for AUC, modulator BJ.LNAME: reference of the scale not given here.
Throughout, for AUC, modulator BJ.NAD+: reference of the scale not given here.
Throughout, for AUC, modulator BJ.NMMA: reference of the scale not given here.
Throughout, for AUC, modulator BJ.Nec-1: reference of the scale not given here.
Throughout, for AUC, modulator BJ.Pepstatin: reference of the scale not given here.
Throughout, for AUC, modulator BJ.TLCK: reference of the scale not given here.

## O=[N+]([O-])c1ccc(O)c([N+](=O)[O-])c1
HT-1080
  AUC, modulator HT.3MA: −0.1332
BJeLR
  AUC, modulator BJ.3MA: −0.008182
  AUC, modulator BJ.ALLN: −0.03838
  AUC, modulator BJ.Boc D: −0.01714
  AUC, modulator BJ.CHX: 0.189
  AUC, modulator BJ.Co2+: −0.008316
  AUC, modulator BJ.DPQ: −0.03251
  AUC, modulator BJ.Gd3+: −0.01413
  AUC, modulator BJ.LNAME: −0.0202
  AUC, modulator BJ.Lmin: −0.0205
  AUC, modulator BJ.NAD+: 0.06986
  AUC, modulator BJ.NMMA: −0.02735
  AUC, modulator BJ.Nec-1: −0.001955
  AUC, modulator BJ.Pepstatin: 0.05394
  AUC, modulator BJ.TLCK: −0.0426
  AUC, modulator BJ.atoc: 0.02318
  AUC, modulator BJ.trolox: 0.009957
  AUC, modulator BJ.zVAD: −0.0001198

## CN(C)CC(O)Cn1c2ccc(Cl)cc2c2cc(Cl)ccc21 (centres unmarked) [CIL5]
HT-1080
  AUC HT.ATA: 0.0005893
  AUC HT.ActD: −0.00753
  AUC HT.BHA: −0.08502
  AUC HT.BHT: −0.09917
  AUC HT.BocD: 0.01524
  AUC HT.CHX: 0.09726
  AUC HT.Co2+: 0.08698
  AUC HT.CspA: −0.02159
  AUC HT.DPQ: 0.009641
  AUC HT.EGTA: −0.009215
  AUC HT.Gd3+: −0.0257
  AUC HT.LNAME: 0.02263
  AUC HT.Lmim: 0.003574
  AUC HT.NAD+: 0.03421
  AUC HT.NMMA: −0.003405
  AUC HT.Nec-1: 0.003351
  AUC HT.Pepstatin: 0.01965
  AUC HT.SP600125: −0.02149
  AUC HT.TLCK: −0.004057
  AUC HT.U0126: −0.02944
  HT.atoc (AUC): 0.03603
  HT.bCarotene (AUC): −0.01403
  HT.deferox (AUC): −0.01025
  HT.digoxin (AUC): 0.005534
  HT.trolox (AUC): 0.01247
  HT.zVAD (AUC): −0.01378
  AUC, modulator HT.3MA: 0.0132
  AUC, modulator HT.ALLN: 0.07446
BJeLR
  AUC, modulator BJ.3MA: 0.08524
  AUC, modulator BJ.ALLN: −0.1163
  AUC, modulator BJ.Boc D: −0.07609
  AUC, modulator BJ.CHX: −0.0324
  AUC, modulator BJ.Co2+: 0.04705
  AUC, modulator BJ.DPQ: 0.002876
  AUC, modulator BJ.Gd3+: 0.01146
  AUC, modulator BJ.LNAME: −0.009787
  AUC, modulator BJ.Lmin/NAD+: −0.01738
  AUC, modulator BJ.Lmin: −0.03698
  AUC, modulator BJ.NAD+: 2.99E−05
  AUC, modulator BJ.NMMA: −0.0271
  AUC, modulator BJ.Nec-1: 0.03195
  AUC, modulator BJ.Pepstatin: 0.06042
  AUC, modulator BJ.TLCK: −0.02603
  AUC, modulator BJ.atoc: −0.00271
  AUC, modulator BJ.trolox: 0.0183
  AUC, modulator BJ.zVAD: −0.02054

## O=C1c2ccccc2-c2onc3ccc(Oc4ccccc4)c1c23 [CIL6]
HT-1080
  AUC HT.ATA: 0.007654
  AUC HT.ActD: −0.008928
  AUC HT.BHA: −0.007636
  AUC HT.BHT: −0.06114
  AUC HT.BocD: 0.076
  AUC HT.CHX: 0.161
  AUC HT.Co2+: 0.04208
  AUC HT.CspA: −0.01275
  AUC HT.DPQ: 0.04323
  AUC HT.EGTA: 0.01026
  AUC HT.Gd3+: −0.02897
  AUC HT.LNAME: 0.0157
  AUC HT.Lmim: −0.01064
  AUC HT.NAD+: 0.04899
  AUC HT.NMMA: −0.02292
  AUC HT.Nec-1: 0.01299
  AUC HT.Pepstatin: 0.0188
  AUC HT.SP600125: −0.01195
  AUC HT.TLCK: −0.00546
  AUC HT.U0126: 0.04846
  HT.atoc (AUC): 0.1204
  HT.bCarotene (AUC): −0.0173
  HT.deferox (AUC): 0.02051
  HT.digoxin (AUC): 0.009607
  HT.trolox (AUC): −0.01697
  HT.zVAD (AUC): −0.01676
  AUC, modulator HT.3MA: 0.06096
  AUC, modulator HT.ALLN: 0.04648
BJeLR
  AUC, modulator BJ.3MA: 0.1191
  AUC, modulator BJ.ALLN: −0.0496
  AUC, modulator BJ.Boc D: −0.05247
  AUC, modulator BJ.CHX: 0.1353
  AUC, modulator BJ.Co2+: 0.06961
  AUC, modulator BJ.DPQ: 0.01365
  AUC, modulator BJ.Gd3+: 0.006848
  AUC, modulator BJ.LNAME: −0.02637
  AUC, modulator BJ.Lmin/NAD+: −0.0638
  AUC, modulator BJ.Lmin: −0.03874
  AUC, modulator BJ.NAD+: 0.02657
  AUC, modulator BJ.NMMA: 0.006287
  AUC, modulator BJ.Nec-1: 0.01237
  AUC, modulator BJ.Pepstatin: 0.03711
  AUC, modulator BJ.TLCK: −0.01536
  AUC, modulator BJ.atoc: 0.01482
  AUC, modulator BJ.trolox: −0.006777
  AUC, modulator BJ.zVAD: −0.003192
